According to patent publication US9486422B2, “Small molecule inhibitors of Mcl-1 and the uses of thereof” (THE REGENTS OF THE UNIVERSITY OF MICHIGAN, priority 2011, dated 2016):
Like-named read-outs stand apart in the source and are kept apart here.

How the values were obtained:
Mcl-1 = Mcl-1 (Homo sapiens, UniProt Q07820); assay: FP-based binding assay, Mcl-1; details: for Ki: read-out: Mcl-1 Ki ± SD; for binding to Mcl-1, result in words: FP assay
A1/Bfl-1 = target: T1, A1/Bfl-1 (Homo sapiens, UniProt Q16548); assay: FP-based binding assay, A1/Bfl-1; details: for Ki: read-out: A1/Bfl-1 Ki ± SD
T1 sequence (Q16548 1-151): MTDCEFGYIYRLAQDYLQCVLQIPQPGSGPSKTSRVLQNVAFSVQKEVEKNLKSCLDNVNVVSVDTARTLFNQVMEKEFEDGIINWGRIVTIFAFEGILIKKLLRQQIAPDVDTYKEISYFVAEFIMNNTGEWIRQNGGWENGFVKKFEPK

Bcl-w = target: T2, Bcl-w (Homo sapiens, UniProt Q92843); assay: FP-based binding assay, Bcl-w; details: for Ki: competitive FP, FAM-BID 2 nM, protein 40 nM, read-out: Bcl-w Ki ± SD
T2 sequence (Q92843 1-155): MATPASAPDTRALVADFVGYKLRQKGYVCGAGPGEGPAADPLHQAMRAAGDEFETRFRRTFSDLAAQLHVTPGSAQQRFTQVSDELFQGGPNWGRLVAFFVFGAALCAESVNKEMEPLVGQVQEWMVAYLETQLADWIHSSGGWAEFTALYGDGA

Bcl-xL = Bcl-xL (Homo sapiens, UniProt Q07817, DEL45-85); assay: FP-based binding assay, Bcl-xL; details: read-out: Bcl-xL Ki ± SD
Bcl-2 = target: T3, Bcl-2 (Homo sapiens, UniProt P10415); assay: FP-based binding assay, Bcl-2; details: competitive FP, Flu-BID 2 nM, protein 60 nM; read-out: Bcl-2 Ki ± SD
T3 construct: His-tagged proteins containing; fused on or other part: A 16-residue segment of the flexible loop of Bcl-xL (BCL2L1, Q07817; given as residues 35 to 50) set into the Bcl-2 loop region; His tag with TEV site from the pHis-TEV vector

[1] = competitive FP, Flu-BID 2 nM, Mcl-1 90 nM, read-out: Mcl-1 IC50 ± SD
[2] = competitive FP, Ki calculated from IC50
[3] = competitive FP, FAM-BID 1 nM, protein 4 nM
[4] = competitive FP, FAM-BID 2 nM, protein 50 nM

Chain of Mcl-1 (Q07820 171-327): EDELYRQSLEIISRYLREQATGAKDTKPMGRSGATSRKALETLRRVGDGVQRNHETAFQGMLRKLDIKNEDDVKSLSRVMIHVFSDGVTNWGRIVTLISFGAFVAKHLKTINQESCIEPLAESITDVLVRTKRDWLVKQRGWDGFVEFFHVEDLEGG
Chain of Bcl-xL (Q07817 other isoform, or with tags, fused parts or gaps DEL45-85): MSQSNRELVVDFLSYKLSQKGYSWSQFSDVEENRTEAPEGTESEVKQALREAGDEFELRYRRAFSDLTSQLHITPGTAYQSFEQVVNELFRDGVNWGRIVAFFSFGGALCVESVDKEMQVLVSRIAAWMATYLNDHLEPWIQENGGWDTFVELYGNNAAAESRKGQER
T3 sequence (P10415 with tags, fused parts or gaps with the stated changes): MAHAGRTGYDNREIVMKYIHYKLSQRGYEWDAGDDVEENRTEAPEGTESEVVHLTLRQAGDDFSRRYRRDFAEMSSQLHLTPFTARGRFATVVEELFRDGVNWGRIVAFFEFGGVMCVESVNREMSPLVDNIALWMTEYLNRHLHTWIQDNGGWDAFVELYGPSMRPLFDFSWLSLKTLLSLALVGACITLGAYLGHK

Structure (SMILES)	IC50 (Mcl-1; [1])	Ki (Mcl-1; [2])	also measured
CCc1ccc(S(=O)(=O)Nc2cc(SCC(=O)O)c(O)c3ccccc23)cc1 [Compound 4]	5.73 ± 1.34 µM	1.55 ± 0.37 µM	
COc1c(SCC(N)=O)cc(NS(=O)(=O)c2ccc(Br)cc2)c2ccccc12 [Compound 4v, 2-((4-(4-Bromophenylsulfonamido)-1-methoxynaphthalen-2-yl)thio)acetamide]		> 25 µM	binding to Mcl-1, result in words (Mcl-1): loss of binding
NC(=O)CSc1cc(NS(=O)(=O)c2ccc(Br)cc2)c2ccccc2c1O [Compound 33, 2-((4-(4-Bromophenylsulfonamido)-1-hydroxynaphthalen-2-yl)thio)acetamide]	6.27 ± 1.28 µM		Ki (Mcl-1): 1.71 ± 0.35 µM
O=C(O)CSc1cc(NS(=O)(=O)c2ccc(-c3ccc(Cl)cc3)cc2)c2ccccc2c1O [Compound 17, 2-((4-(4′-Chloro-[1,1′-biphenyl]-4-ylsulfonamido)-1-hydroxynaphthalen-2-yl)thio)acetic acid]	0.68 ± 0.14 µM	0.17 ± 0.04 µM	
O=C(O)CSc1cc(NS(=O)(=O)c2ccc(Oc3ccccc3)cc2)c2ccccc2c1O [Compound 18, 2-((1-Hydroxy-4-(4-phenoxyphenylsulfonamido)naphthalen-2-yl)thio)acetic acid]			Ki (A1/Bfl-1; [3]): 3.36 ± 0.56 µM; Ki (Bcl-w): 1.58 ± 0.35 µM; Ki (Bcl-xL; [4]): 10.6 ± 1.53 µM
O=C(O)CSc1cc(NS(=O)(=O)c2cc3ccccc3s2)c2ccccc2c1O [Compound 12, 2-((4-(Benzo[b]thiophene-2-sulfonamido)-1-hydroxynaphthalen-2-yl)thio)acetic acid]		1.54 ± 0.32 µM	IC50 (Mcl-1): 5.66 ± 1.15 µM
O=C(O)CSc1cc(NS(=O)(=O)c2ccccc2Br)c2ccccc2c1O [Compound 11, 2-((4-(2-Bromophenylsulfonamido)-1-hydroxynaphthalen-2-yl)thio)acetic acid]	16.2 ± 3.12 µM		Ki (Mcl-1): 4.42 ± 0.86 µM
O=C(O)CSc1cc(NS(=O)(=O)c2ccc(Br)cc2)ccc1O [Compound 22, 2-((5-(4-Bromophenylsulfonamido)-2-hydroxyphenyl)thio)acetic acid]	> 800 µM	> 200 µM	Ki (A1/Bfl-1; [3]): > 140 µM; Ki (Bcl-2): > 200 µM; Ki (Bcl-w): > 90 µM; Ki (Bcl-xL; [4]): > 130 µM
O=S(=O)(Nc1cc(CCCCO)c(O)c2ccccc12)c1ccc(Br)cc1 [Compound 32, 4-Bromo-N-(4-hydroxy-3-(4-hydroxybutyl)naphthalen-1-yl)benzenesulfonamide]	8.01 ± 3.31 µM		fold decreased binding to Mcl-1 compared to 9 (UMI-77) (Mcl-1): 4 fold; Ki (Mcl-1): 2.18 ± 0.91 µM
O=C(O)CSc1cc(NS(=O)(=O)c2ccc(C(=O)O)cc2)c2ccccc2c1O [Compound 20]	17.4 µM	4.76 µM	
Cc1ccc(S(=O)(=O)Nc2cc(SCC(=O)O)c(O)c3ccccc23)cc1 [Compound 3]	11.5 ± 0.78 µM	3.13 ± 0.22 µM	
CC(C)(C)c1ccc(S(=O)(=O)Nc2cc(SCC(=O)O)c(O)c3ccccc23)cc1 [Compound 6]	3.03 ± 0.17 µM	0.81 ± 0.04 µM	
CC(C)c1ccc(S(=O)(=O)Nc2cc(SCC(=O)O)c(O)c3ccccc23)cc1 [Compound 5]		1.06 ± 0.17 µM	IC50 (Mcl-1; read-out: Mcl-1 IC50 ± SD): 3.92 ± 0.63 µM
O=C(O)CSc1cc(NS(=O)(=O)c2ccccc2)c2ccccc2c1O [Compound 2, 2-((1-Hydroxy-4-(phenylsulfonamido)naphthalen-2-yl)thio)acetic acid]	13 ± 1.62 µM		Ki (Mcl-1): 3.56 ± 0.45 µM
CCOc1ccc(S(=O)(=O)Nc2cc(SCC(=O)O)c(O)c3ccccc23)cc1 [Compound 19]	50.1 ± 4.15 µM	13.7 ± 1.14 µM	
O=C(O)CSc1cc(NS(=O)(=O)c2ccccc2-c2ccccc2)c2ccccc2c1O [Compound 16, 2-((4-([1,1′-Biphenyl]-2-ylsulfonamido)-1-hydroxynaphthalen-2-yl)thio)acetic acid]	7.47 ± 1.47 µM		fold improved binding to Mcl-1 compared to 2 (Mcl-1): 2 fold; Ki (Mcl-1): 2.03 ± 0.41 µM; Ki (A1/Bfl-1): 17.3 ± 0.56 µM; Ki (Bcl-w): 4.41 ± 0.39 µM; Ki (Bcl-xL): 48.1 ± 3.28 µM
O=C(O)CSc1cc(NS(=O)(=O)c2ccc(F)cc2)c2ccccc2c1O [Compound 7]	15.5 ± 3.38 µM	4.23 ± 0.93 µM	

Structure (SMILES)	IC50 (Mcl-1; [1])	Ki (Mcl-1; [2])	also measured
O=C(O)CCSc1cc(NS(=O)(=O)c2cccc3ccccc23)c2ccccc2c1O [Compound 35]	> 50 µM	> 12.5 µM	
COC(=O)CSc1cc(NS(=O)(=O)c2ccc(Br)cc2)c2ccccc2c1OC [Compound 40d, Methyl 2-((4-(4-bromophenylsulfonamido)-1-methoxynaphthalen-2-yl)thio)acetate]	> 800 µM	> 200 µM	
O=C(O)CSc1cc(NS(=O)(=O)c2ccc(Cl)cc2)c2ccccc2c1O [Compound 8, 2-((4-(4-Chlorophenylsulfonamido)-1-hydroxynaphthalen-2-yl)thio)acetic acid]	3.08 ± 0.35 µM		Ki (Mcl-1): 0.82 ± 0.1 µM
O=C(O)CSc1cc(NS(=O)(=O)c2ccc(-c3ccccc3)cc2)c2ccccc2c1O [Compound 14, 2-((4-([1,1′-Biphenyl]-4-ylsulfonamido)-1-hydroxynaphthalen-2-yl)thio)acetic acid]	1.4 ± 0.36 µM		fold improved binding to Mcl-1 compared to 2 (Mcl-1): 9 fold; Ki (Mcl-1): 0.37 ± 0.1 µM; Ki (A1/Bfl-1): 2.34 ± 0.37 µM; Ki (Bcl-w): 1.92 ± 0.37 µM; Ki (Bcl-xL): 8.05 ± 0.5 µM
CCCCSc1cc(NS(=O)(=O)c2ccc(Br)cc2)c2ccccc2c1OC [Compound 40p, 4-Bromo-N-(3-(butylthio)-4-methoxynaphthalen-1-yl)benzenesulfonamide]	> 800 µM	> 200 µM	
O=C(O)CSc1cc(NC(=O)c2ccc(Br)cc2)c2ccccc2c1O [Compound 23, 2-((4-(4-Bromobenzamido)-1-hydroxynaphthalen-2-yl)thio)acetic acid]	> 100 µM	> 25 µM	
O=C(O)CCSc1cc(NS(=O)(=O)c2ccc3ccccc3c2)c2ccccc2c1O [Compound 34, 3-((1-Hydroxy-4-(naphthalene-2-sulfonamido)naphthalen-2-yl)thio)propanoic acid]	4.2 ± 1.25 µM	1.13 ± 0.34 µM	
O=C(O)CSc1cc(NS(=O)(=O)c2cccc(-c3ccccc3)c2)c2ccccc2c1O [Compound 15, 2-((4-([1,1′-Biphenyl]-3-ylsulfonamido)-1-hydroxynaphthalen-2-yl)thio)acetic acid]	1.41 ± 0.17 µM		fold improved binding to Mcl-1 compared to 2 (Mcl-1): 9 fold; Ki (Mcl-1): 0.38 ± 0.03 µM; Ki (A1/Bfl-1): 3.18 ± 0.41 µM; Ki (Bcl-w): 2.19 ± 0.45 µM; Ki (Bcl-xL): 15.1 ± 1.11 µM
O=C(O)CSc1cc(NS(=O)(=O)Cc2ccc(Cl)cc2)c2ccccc2c1O [Compound 25, 2-((4-((4-Chlorophenyl)methylsulfonamido)-1-hydroxynaphthalen-2-yl)thio)acetic acid]	19.1 ± 1.31 µM	5.23 ± 0.36 µM	
CC[C@H](C)[C@H](NC(=O)[C@H](CC(N)=O)NC(=O)[C@H](CCCNC(=N)N)NC(=O)[C@@H](NC(=O)[C@@H](NC(=O)[C@H](CC(=O)O)NC(=O)[C@H](CCC(=O)O)NC(=O)c1ccc2c(c1)C(=O)OC21c2ccc(O)cc2Oc2cc(O)ccc21)[C@@H](C)CC)[C@@H](C)CC)C(=O)N[C@@H](C)C(=O)N[C@@H](CCCNC(=N)N)C(=O)N[C@@H](Cc1c[nH]cn1)C(=O)N[C@@H](CC(C)C)C(=O)N[C@@H](C)C(=O)N[C@@H](CCC(N)=O)C(=O)N[C@H](C(=O)NCC(=O)N[C@@H](CC(=O)O)C(=O)N[C@@H](CO)C(=O)N[C@@H](CCSC)C(=O)N[C@@H](CC(=O)O)C(=O)N[C@@H](CCCNC(=N)N)C(=O)O)C(C)C [FAM-BID, reference compound]			Kd (A1/Bfl-1; saturation experiments, tracer 2 nM, read-out: Kd of fluorescent probe to A1/Bfl-1): 0.00083 ± 6e-05 µM; Kd (Bcl-w; saturation experiments, tracer 2 nM, read-out: Kd of fluorescent probe to Bcl-w): 0.0055 ± 0.0016 µM
CCCCSc1cc(NS(=O)(=O)c2ccc(Br)cc2)c2ccccc2c1O [Compound 30, 4-Bromo-N-(3-(butylthio)-4-hydroxynaphthalen-1-yl)benzenesulfonamide]	> 100 µM	> 25 µM	binding to Mcl-1, result in words (Mcl-1): abolished the binding to Mcl-1 protein
O=C(O)CSc1cc(NC(=O)Cc2ccccc2)c2ccccc2c1O [Compound 24, 2-((1-Hydroxy-4-(2-phenylacetamido)naphthalen-2-yl)thio)acetic acid]	154 ± 40.2 µM	42.4 ± 11 µM	
O=S(=O)(Nc1ccc(O)c2ccccc12)c1ccccc1 [Compound 27, N-(4-Hydroxynaphthalen-1-yl)benzenesulfonamide]	> 100 µM	> 25 µM	binding to Mcl-1, result in words (Mcl-1): abolished binding
O=C(O)CSc1cc(NS(=O)(=O)c2ccc3ccccc3c2)c2ccccc2c1O [Compound 13]	2.74 ± 0.18 µM	0.73 ± 0.05 µM	
CS(=O)(=O)Nc1cc(SCC(=O)O)c(O)c2ccccc12 [Compound 21, 2-((1-Hydroxy-4-(methylsulfonamido)naphthalen-2-yl)thio)acetic acid]	> 200 µM	> 50 µM	
O=C(O)CSc1cc(NS(=O)(=O)c2cccc(Br)c2)c2ccccc2c1O [Compound 10, 2-((4-(3-Bromophenylsulfonamido)-1-hydroxynaphthalen-2-yl)thio)acetic acid]	8.64 ± 0.69 µM	2.35 ± 0.19 µM	
